Patent US12544347B2, “Anti-cancer combination and a method of therapy using the combination” (NATIONAL CENTRE FOR CELL SCIENCE, priority 2018, dated 2026)
Where a name gives a salt, the structure may show the parent alone.

Experiments:
Assay type in all cases: cell-based
[1] = tested on: prostate apoptosis response (Par)-4; experiment: Western blotting of intracellular Par-4 in LN-229 cells; conditions: LN-229 cell lysates; TAM 12 μg/ml, VPA 2 mM, alone or combined; 24 hr
Protocol: FIG. 5 depicts the effect of tamoxifen (12 μg/ml) or valproic acid (2 mM) alone or combination of tamoxifen and valproic acid on Par-4 expression in LN-229 cells for 24 hr. GAPDH was used as loading control and control group (C) represents untreated cells. LN-229 cells were seeded in 6 well plate (0.3 million cells/well) and treated with TAM (12 μg/ml) and VPA (2 mM) either individually or in combination for 24 hr. Cell lysates were assessed for expression of intracellular prostate apoptosis response (Par)-4. Western blotting was done using 10% gels and the proteins were identified using specific antibodies followed by probing with luminol-based Enhanced Chemiluminescent (ECL) western blotting substrate.

LN-18 cells = experiment: MTT assay, cell viability in LN-18 cells (monolayer or multicellular spheroids); conditions: 24 hr
Protocol: (§1) FIG. 1 depicts cell viability assessed by MTT assay in GBM cell lines-LN-18 and LN-229 using tamoxifen (TAM) at concentration of 5 μg/ml, 10 μg/ml and 15 μg/ml; individually and in combination with Valproic Acid (VPA) (2 mM) wherein the cells were cultured as monolayer (ML) or Multicellular Spheroids (MCS). Unt-open bar-represents untreated cells and hatched bar—[…] (2 mM). Further, the open bars (in 5, 10 15) depict TAM alone and the hatched bars depict TAM in combination with VPA. FIG. 1 also depicts the P values (represented as *) significant for differences between TAM alone versus TAM+VPA. The images are LN-18 cells grown as 2D cultures—ML and 3D-MCS.
FIG. 3 depicts the effect of Valpromide (VPM), an analogue of VPA causing sensitization of tamoxifen (TAM) which induced cell death in LN-18 cells cultured as monolayer (ML). […] The P values (represented as *) are significant for differences between TAM alone versus TAM+VPA/VPM.
MTT assay was employed for assessing the combined action of tamoxifen (TAM) and VPA. LN-18 cells and LN-229 were seeded in 96 well plate (5000 cells/100 ul/well) in complete medium and cultured for 24 hr in two culture models-monolayer and 3D culture. Cells were treated with tamoxifen (TAM) at 3 concentrations-5 μg/ml, 10 μg/ml and 15 μg/ml either individually or in combination with Valproic Acid (VPA) (2 mM) for 24 hr. MTT was added and after 4 hr the crystals were solubilized using DMSO. Absorbance was recorded at 490 nm (test filter) and 570 nm (reference filter). The % cell viability in treated cells was calculated considering the readings in untreated cells as 100%. The results are presented at FIG. 1. […] From FIG. 1, it is evident that the combination of the present invention is synergistic.
LN-18 cells (ML) were seeded in 96 well plate (5000 cells/100 ul/well) in complete medium and cultured for 24 hr. […] Absorbance was recorded at 490 nm (test filter) and 570 nm (reference filter). The % cell viability with treatment was calculated with readings in untreated cells considered as 100%. […]

LN-229 cells = experiment: MTT assay, cell viability in LN-229 cells (monolayer or multicellular spheroids); conditions: LN-229 MCS; TAM alone; 24 hr
Protocol: as §1
MTT assay was employed for assessing the combined action of tamoxifen (TAM) and VPA. LN-18 cells and LN-229 were seeded in 96 well plate (5000 cells/100 ul/well) in complete medium and cultured for 24 hr in two culture models-monolayer and 3D culture. Cells were treated with tamoxifen (TAM) at 3 concentrations-5 μg/ml, 10 μg/ml and 15 μg/ml either individually or in combination with Valproic Acid (VPA) (2 mM) for 24 hr. MTT was added and after 4 hr the crystals were solubilized using DMSO. Absorbance was recorded at 490 nm (test filter) and 570 nm (reference filter). The % cell viability in treated cells was calculated considering the readings in untreated cells as 100%. The results are presented at FIG. 1. […]

[2] = tested on: prostate apoptosis response (Par)-4; experiment: Western blotting of intracellular and secretory Par-4 in LN-18 cells; conditions: TAM 10 μg/ml, VPA 2 mM, alone or combined, 48 hr
Protocol: FIG. 4 depicts the effect of combination of tamoxifen (10 μg/ml) and valproic acid (2 mM) on the levels of secretory Par-4 and expression of GRP78 in […] cells wherein the control (C) represents untreated cells, V represents for valproic acid, T represents for tamoxifen and V+T represents combination of tamoxifen and valproic acid. The LN-18 cells were treated with tamoxifen or valproic acid alone or in combination for 48 hrs.
LN-18 cells were seeded in 6 well plate (0.3 million cells/well) and treated with TAM (10 μg/ml) and VPA (2 mM) either individually or in combination for 48 hr. Cell lysates were assessed for expression of intracellular prostate apoptosis response (Par)-4 and secretory Par-4 was measured in supernatants. Western blotting was done using 10% gels and the proteins were identified using specific antibodies followed by probing with luminol-based Enhanced Chemiluminescent (ECL) western blotting substrate. The results are presented at FIG. 4.

| Structure (SMILES) | cellular Par-4 expression (western blot) [1] | effect on % cell viability (MTT) (LN-18 cells; LN-18 MCS, TAM alone) | effect on % cell viability (MTT) (LN-18 cells; LN-18 cells, TAM 15 ug/ml alone) | effect on % cell viability (MTT) (LN-18 cells; monolayer, TAM 5, 10 and 15 μg/ml alone) | effect on % cell viability (MTT) (LN-229 cells) | cellular Par-4 level (western blot) ([2]; LN-18 cell lysates) | secretory Par-4 level (western blot) ([2]; LN-18 supernatants) |
| --- | --- | --- | --- | --- | --- | --- | --- |
| CCCC(CCC)C(=O)O [VPA, Valproic acid] | induced | – | – | – | – | – | – |
| CC/C(=C(\c1ccccc1)c1ccc(OCCN(C)C)cc1)c1ccccc1 [TAM, (Z)-2[p[(1,2-diphenyl-1-butenyl)phenoxyl]-N,N-dimethylamine citrate] | – | resistant | toxic | dose dependent | resistant | enhanced | enhanced |
